From article doi:10.1101/2022.06.02.494630v1 (biorxiv, 2022) come the findings set out here.

The target in one assay is PfPHB2 (Plasmodium falciparum, UniProt Q8IJP8). Kind of assay: biochemical.
A further assay deals with PfPHB1 (Plasmodium falciparum, UniProt Q8IBC3). Kind of assay: biochemical.

Molecules are shown by their SMILES.

Chain of PfPHB2 (Q8IJP8 1-304): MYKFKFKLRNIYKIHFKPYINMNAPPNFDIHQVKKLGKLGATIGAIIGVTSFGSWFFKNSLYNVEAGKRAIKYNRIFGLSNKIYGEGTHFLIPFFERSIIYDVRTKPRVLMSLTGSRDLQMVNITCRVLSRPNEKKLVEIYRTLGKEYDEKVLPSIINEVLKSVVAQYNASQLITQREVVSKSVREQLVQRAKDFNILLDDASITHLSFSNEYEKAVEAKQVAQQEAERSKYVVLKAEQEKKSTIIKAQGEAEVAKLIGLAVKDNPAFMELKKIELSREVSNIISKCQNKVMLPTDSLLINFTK
Chain of PfPHB1 (Q8IBC3 1-272): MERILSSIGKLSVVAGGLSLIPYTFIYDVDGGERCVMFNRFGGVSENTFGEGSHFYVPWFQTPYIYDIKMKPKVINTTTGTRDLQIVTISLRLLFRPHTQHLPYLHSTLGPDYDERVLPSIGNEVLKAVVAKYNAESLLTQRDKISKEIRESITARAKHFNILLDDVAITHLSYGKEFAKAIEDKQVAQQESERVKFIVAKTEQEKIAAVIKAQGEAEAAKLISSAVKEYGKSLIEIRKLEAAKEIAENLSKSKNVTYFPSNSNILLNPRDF

For orientation: Kd means the constant that tells how readily two partners part at equilibrium. A low value points to tighter binding. For `COc1ccc([C@@]23Oc4cc(OC)cc(OC)c4[C@]2(O)[C@H](O)[C@H](C(=O)N(C)C)[C@H]3c2ccccc2)cc1` [Roc-A], the figures for the Kd at PfPHB2 and on PfPHB1 were 0.683 ± 0.021 µM and 1.37 ± 0.6 µM, respectively.
